In ChEMBL document CHEMBL1681651, “A broad spectrum anticancer nucleoside with selective toxicity against human colon cells in vitro” (2011):

Legend:
Assay type in all cases: functional
[1] = test system: MDA-MB-435; assay: Growth inhibition of human MDA-MB-435 cells assessed as cell growth at 10 uM after 48 hrs by SRB assay; settings: MDA-MB-435, 48 h, read-out: Activity
[2] = test system: HL-60(TB); assay: Growth inhibition of human HL-60(TB) cells assessed as cell growth at 10 uM after 48 hrs by SRB assay; settings: HL-60, 48 h, read-out: Activity
[3] = test system: T47D; assay: Growth inhibition of human T47D cells assessed as cell growth at 10 uM after 48 hrs by SRB assay; settings: read-out: Activity
[4] = test system: SK-OV-3; assay: Growth inhibition of human SKOV3 cells assessed as cell growth at 10 uM after 48 hrs by SRB assay; settings: SK-OV-3, 48 h, read-out: Activity
[5] = test system: BT-549; assay: Growth inhibition of human BT549 cells assessed as cell growth at 100 uM after 48 hrs by SRB assay; settings: BT-549, 48 h, read-out: Activity
[6] = test system: SF-539; assay: Growth inhibition of human SF539 cells after 48 hrs by […] growth inhibition assay; settings: SF-539, 48 h
[7] = test system: MDA-MB-231; assay: Growth inhibition of human MDA-MB-231 cells assessed as cell growth at 0.1 uM after 48 hrs by SRB assay; settings: MDA-MB-231, 48 h, read-out: Activity
[8] = test system: SN12C; assay: Growth inhibition of human SN12C cells assessed as cell growth at 100 uM after 48 hrs by SRB assay; settings: read-out: Activity
[9] = test system: OVCAR-4; assay: Growth inhibition of human OVCAR4 cells assessed as cell growth at 0.1 uM after 48 hrs by SRB assay; settings: OVCAR-4, 48 h, read-out: Activity
[10] = test system: MDA-MB-231; assay: Growth inhibition of human MDA-MB-231 cells after 48 hrs by […] growth inhibition assay; settings: MDA-MB-231, 48 h
[11] = test system: CAKI-1; assay: Growth inhibition of human Caki1 cells assessed as cell growth at 1 mM after 48 hrs by SRB assay; settings: CAKI-1, 48 h, read-out: Activity
[12] = test system: OVCAR-8; assay: Growth inhibition of human OVCAR8 cells after 48 hrs by […] growth inhibition assay; settings: OVCAR-8, 48 h
[13] = test system: HOP-92; assay: Growth inhibition of human HOP92 cells assessed as cell growth at 0.1 uM after 48 hrs by SRB assay; settings: HOP-92, 48 h, read-out: Activity
[14] = test system: BT-549; assay: Growth inhibition of human BT549 cells assessed as cell growth at 0.1 uM after 48 hrs by SRB assay; settings: BT-549, 48 h, read-out: Activity
[15] = test system: NCI-H23; assay: Growth inhibition of human NCI-H23 cells assessed as cell growth at 1 mM after 48 hrs by SRB assay; settings: NCI-H23, 48 h, read-out: Activity
[16] = test system: SK-OV-3; assay: Growth inhibition of human SKOV3 cells assessed as cell growth at 100 uM after 48 hrs by SRB assay; settings: SK-OV-3, 48 h, read-out: Activity
[17] = test system: MDA-MB-435; assay: Growth inhibition of human MDA-MB-435 cells assessed as cell growth at 0.1 uM after 48 hrs by SRB assay; settings: MDA-MB-435, 48 h, read-out: Activity
[18] = test system: NCI-H23; assay: Growth inhibition of human NCI-H23 cells assessed as cell growth at 0.1 uM after 48 hrs by SRB assay; settings: NCI-H23, 48 h, read-out: Activity
[19] = test system: ACHN; assay: Growth inhibition of human ACHN cells assessed as cell growth at 100 uM after 48 hrs by SRB assay; settings: read-out: Activity
[20] = test system: CCRF-CEM; assay: Growth inhibition of human CCRF-CEM cells assessed as cell growth at 1 uM after 48 hrs by SRB assay; settings: read-out: Activity
[21] = test system: SF-539; assay: Growth inhibition of human SF539 cells assessed as cell growth at 0.1 uM after 48 hrs by SRB assay; settings: SF-539, 48 h, read-out: Activity
[22] = test system: MDA-MB-231; assay: Growth inhibition of human MDA-MB-231 cells assessed as cell growth at 1 mM after 48 hrs by SRB assay; settings: MDA-MB-231, 48 h, read-out: Activity
[23] = test system: MDA-MB-435; assay: Growth inhibition of human MDA-MB-435 cells assessed as cell growth at 1 uM after 48 hrs by SRB assay; settings: MDA-MB-435, 48 h, read-out: Activity
[24] = test system: MCF7; assay: Growth inhibition of human MCF7 cells assessed as cell growth at 0.1 uM after 48 hrs by SRB assay; settings: MCF7, 48 h, read-out: Activity
[25] = test system: M14; assay: Growth inhibition of human M14 cells after 48 hrs by […] growth inhibition assay; settings: M14, 48 h
[26] = test system: SNB-75; assay: Growth inhibition of human SNB75 cells after 48 hrs by […] growth inhibition assay; settings: SNB-75, 48 h
[27] = test system: NCI/ADR-RES; assay: Growth inhibition of human NCI/ADR-RES cells assessed as cell growth at 1 uM after 48 hrs by SRB assay; settings: read-out: Activity
[28] = test system: NCI-H322M; assay: Growth inhibition of human NCI-H322M cells after 48 hrs by […] growth inhibition assay
[29] = Growth inhibition of human […] cells assessed as cell growth at 0.1 uM after 48 hrs by SRB assay; settings: read-out: Activity
[30] = test system: UO-31; assay: Growth inhibition of human UO31 cells after 48 hrs by […] growth inhibition assay; settings: UO-31, 48 h
[31] = test system: U-251; assay: Growth inhibition of human U251 cells assessed as cell growth at 0.1 uM after 48 hrs by SRB assay; settings: U-251, 48 h, read-out: Activity
[32] = test system: HT-29; assay: Growth inhibition of human HT-29 cells after 48 hrs by […] growth inhibition assay; settings: HT-29, 48 h
[33] = read-out: LC50 (the source's name)
[34] = read-out: pLC50 (the source's name) (converted)

CNC(=O)OC[C@H]1O[C@@H](n2cnc3c(NC(=O)Nc4ccccc4)ncnc32)[C@H](O[Si](C)(C)C(C)(C)C)[C@@H]1O[Si](C)(C)C(C)(C)C
growth at 10 µM [1]: 94.9% | growth at 10 µM [2]: 113% | growth at 10 µM [3]: 116% | growth at 10 µM [4]: 106%

CNC(=O)NC[C@H]1O[C@@H](n2cnc3c(NC(=O)Nc4ccccc4)ncnc32)[C@H](O[Si](C)(C)C(C)(C)C)[C@@H]1O[Si](C)(C)C(C)(C)C
growth at 100 µM [5]: -10% | GI50 ([6]; read-out: GI50): 3.07 µM | CC50 [6, 33]: 94.3 µM | TGI ([6]; read-out: TGI): 13 µM | GI50 ([6]; read-out: pGI50 (converted)): 3.09 µM | CC50 [6, 34]: 93.3 µM | TGI ([6]; read-out: pTGI (converted)): 12.9 µM | growth at 0.1 µM [7]: 105% | growth at 10 µM [1]: 97% | growth at 100 µM [8]: -87% | growth at 0.1 µM [9]: 106% | GI50 ([10]; read-out: GI50): 2.61 µM | CC50 [10, 33]: 28.3 µM | TGI ([10]; read-out: TGI): 6.12 µM | GI50 ([10]; read-out: pGI50 (converted)): 2.63 µM | CC50 [10, 34]: 28.2 µM | TGI ([10]; read-out: pTGI (converted)): 6.17 µM | growth at 1000 µM [11]: -33% | GI50 ([12]; read-out: GI50): 4.01 µM | CC50 [12, 33]: > 100 µM | TGI ([12]; read-out: TGI): 40.1 µM | GI50 ([12]; read-out: pGI50 (converted)): 3.98 µM | CC50 [12, 34]: > 100 µM | TGI ([12]; read-out: pTGI (converted)): 39.8 µM | growth at 0.1 µM [13]: 85% | growth at 0.1 µM [14]: 113% | growth at 1000 µM [15]: -53% | growth at 100 µM [16]: 39% | growth at 0.1 µM [17]: 102% | growth at 0.1 µM [18]: 100% | growth at 100 µM [19]: 10% | growth at 1 µM [20]: 109% | growth at 0.1 µM [21]: 100% | growth at 1000 µM [22]: -76% | growth at 1 µM [23]: 102% | growth at 0.1 µM [24]: 99% | growth at 10 µM [3]: 92% | GI50 ([25]; read-out: GI50): 4.33 µM | CC50 [25, 33]: 93.8 µM | TGI ([25]; read-out: TGI): 18.5 µM | GI50 ([25]; read-out: pGI50 (converted)): 4.37 µM | CC50 [25, 34]: 93.3 µM | TGI ([25]; read-out: pTGI (converted)): 18.6 µM | GI50 ([26]; read-out: GI50): 2.43 µM | CC50 [26, 33]: > 100 µM | TGI ([26]; read-out: TGI): 34.1 µM | GI50 ([26]; read-out: pGI50 (converted)): 2.45 µM | CC50 [26, 34]: > 100 µM | TGI ([26]; read-out: pTGI (converted)): 33.9 µM | growth at 1 µM [27]: 109% | GI50 ([28]; read-out: GI50): 6.86 µM | CC50 [28, 33]: > 100 µM | TGI ([28]; read-out: TGI): > 100 µM | GI50 ([28]; read-out: pGI50 (converted)): 6.92 µM | CC50 [28, 34]: > 100 µM | TGI ([28]; read-out: pTGI): > 100 µM | growth at 0.1 µM [29]: 102% | GI50 ([30]; read-out: GI50): 2.5 µM | CC50 [30, 33]: > 100 µM | TGI ([30]; read-out: TGI): 9.56 µM | GI50 ([30]; read-out: pGI50 (converted)): 2.51 µM | CC50 [30, 34]: > 100 µM | TGI ([30]; read-out: pTGI (converted)): 9.55 µM | growth at 10 µM [4]: 107% | growth at 0.1 µM [31]: 102% | GI50 ([32]; read-out: GI50): 2.02 µM | CC50 [32, 33]: 6.91 µM | TGI ([32]; read-out: TGI): 3.73 µM | GI50 ([32]; read-out: pGI50 (converted)): 2 µM | CC50 [32, 34]: 6.92 µM | TGI ([32]; read-out: pTGI (converted)): 3.72 µM
